Measured values: US9458123B2, “Methods, pharmaceutical compositions, therapeutic systems, and compounds for treating B cell malignancies” (University of Rochester, priority 2012, dated 2016)

How the values were obtained:
[1] = test system: IκBα phosphorylation by RANKL in RAW264.7 cells; test: IκBα phosphorylation after RANKL, western blot; type: cell-based; conditions: RAW264.7, RANKL 15 ng/ml
Description: SUDHL-6, RAW264.7, and MEF cells were treated with NSC697923 or DMSO (control) for 1 hour before being stimulated with the PMA (100 ng/ml), RANKL (15 ng/ml), and LPS (1.5 μg/ml) for the indicated times. The levels of IκBα phosphorylation in the indicated samples were assessed by western blotting.

Ubc13-Uev1A complex = biological target: T1, Ubc13-Uev1A complex (Homo sapiens, UniProt P61088); test: GST pull-down, in vitro interaction between Ubc13 and Uev1A; type: binding; conditions: GST-Ubc13, OCI-Ly10 cell extract
T1 construct: made in house; host or cells: E. coli BL21 (GST-Ubc13); OCI-Ly10 cell lysate (Uev1A)
T1 sequence (P61088 whole entry): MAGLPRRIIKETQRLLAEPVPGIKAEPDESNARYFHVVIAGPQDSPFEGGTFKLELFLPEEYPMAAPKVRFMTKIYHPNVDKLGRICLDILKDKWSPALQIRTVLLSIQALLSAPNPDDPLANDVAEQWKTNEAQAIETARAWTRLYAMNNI
T1 sequence (Q13404 whole entry partner): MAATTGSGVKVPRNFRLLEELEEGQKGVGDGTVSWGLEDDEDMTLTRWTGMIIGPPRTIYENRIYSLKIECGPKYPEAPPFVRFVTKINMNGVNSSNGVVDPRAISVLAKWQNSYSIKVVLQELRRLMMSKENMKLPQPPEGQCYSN
Description: Purified GST or GST-Ubc13 fusion proteins were incubated with the cell extract prepared from OCI-Ly10 cells with or without the presence of NSC697923 as indicated. The amounts of Uev1A protein associated with GST or GST-Ubc13 were analyzed by western blotting. The first lane was loaded with 8% of the input cell lysate. […] The assay was carried out as described in FIG. 4A, except that the loading buffer for SDS-PAGE gel contains no reducing agent, unless otherwise specified, and the reaction was analyzed by western blotting with a Ubc13-specific antibody. […] The assay was carried out as in FIG. 5B, except that UbcHSc, instead of Ubc13 and Uev1A, was used in the ubiquitination reaction and that a UbcHSc antibody was used for western blot analysis. […]
GST-Ubc13 bound on glutathione-agarose beads was incubated with cell lysates prepared from OCI-Ly10 cells, with or without the presence of NSC697923, at 4° C. for 1 hour. […] The amounts of GST-Ubc13 and Uev1A proteins bound to the beads were then analyzed by western blotting.

ABC DLBCL cells = test: Growth of ABC DLBCL cells, trypan blue exclusion assay; type: cell-based; conditions: including OCI-Ly3 cells, 24 hours
Description: (§1) The indicated ABC DLBCL cells were seeded at 3×10^5 cells/ml in 6-well plates and cultured in the presence of DMSO (0.2%, control) or various concentrations of NSC697923 for 24 hours. The live and dead cells were counted using the trypan blue exclusion assay. Shown are the means from three separate experiments. The average number of live cells in the control was set at 100. […] The levels of the indicated proteins were analyzed by western blotting. For caspase 3 detection, a mixture of an antibody for the uncleaved form and an antibody specific for the cleaved form was used. In FIG. 7C, OCI-Ly10 cells were treated as in FIG. 7A. The apoptotic cells (Annexin V positive cells) were measured by flow cytometry as described in Example 1 infra. A representative result from three independent experiments is depicted. […] BrdU was then added into the culture medium for 30 minutes before the cell-cycle distribution of the treated cells was analyzed as described in Example 1 infra. Shown are the averages from two independent experiments. […] BrdU was then added into the culture medium for 30 minutes before the cell-cycle distribution of the treated cells was analyzed as described in Example 1 infra. Shown are the averages from two independent experiments. […]

OCI-Ly10 cells = test: Cell cycle distribution, PI and BrdU double staining; type: cell-based; conditions: short time (5 hour) treatment
Description: as §1

OCI-Ly7 cells = test: as above; type: cell-based; conditions: short time (5 hour) treatment
Description: as §1

[2] = test system: K63-linked ubiquitination and repair protein recruitment in U2OS cells; test: DNA double-strand break focus formation after γ-irradiation; type: cell-based; conditions: 1 μM, γ-irradiated 10 Gy
Description: Osteosarcoma U2OS cells were pretreated with 1 μM NSC697923 for 1 hour before γ-irradiated (10 Gy). 30 minutes after irradiation, the cells were fixed and stained with the monoclonal antibody FK2, which recognizes protein-conjugated, but not free, ubiquitin and marks the foci formed by K63-linked ubiquitinated proteins at sites of DSBs. […] U2OS cells were treated as described in FIG. 13A except that the focus formation of the indicated proteins is detected with their respective antibodies.

complex formation between Ubc13 and Uev1A (Ubc13-Uev1A complex): no inhibitory effect
Compound: Cc1ccc(S(=O)(=O)c2ccc([N+](=O)[O-])o2)cc1 [NSC697923, 2-nitro-5-tosylfuran]
IκBα phosphorylation by RANKL [1]: inhibited
proliferation and survival of ABC DLBCL cells (ABC DLBCL cells): induced proliferation arrest and cell death
cells in S phase (OCI-Ly10 cells): marked decrease of cells in S phase
cells in S phase (OCI-Ly7 cells): marked decrease of cells in S phase
FK2 focus formation [2]: inhibition of FK2 focus formation
recruitment of 53BP1 to sites of DNA double-strand breaks [2]: inhibits recruitment
recruitment of BRCA1 to sites of DNA double-strand breaks [2]: inhibits recruitment
